Measured values reported in PMC7932537, “Quantitative profiling of protease specificity” (PLoS Computational Biology, 2021).

How the values were obtained:
MMP-2 [1] = target: T1, MMP-2 (Homo sapiens, UniProt P08253); assay: K(obs) of individual phage substrates (set of 1369); format: biochemical; settings: MMP2
T1 sequence (P08253 110-660): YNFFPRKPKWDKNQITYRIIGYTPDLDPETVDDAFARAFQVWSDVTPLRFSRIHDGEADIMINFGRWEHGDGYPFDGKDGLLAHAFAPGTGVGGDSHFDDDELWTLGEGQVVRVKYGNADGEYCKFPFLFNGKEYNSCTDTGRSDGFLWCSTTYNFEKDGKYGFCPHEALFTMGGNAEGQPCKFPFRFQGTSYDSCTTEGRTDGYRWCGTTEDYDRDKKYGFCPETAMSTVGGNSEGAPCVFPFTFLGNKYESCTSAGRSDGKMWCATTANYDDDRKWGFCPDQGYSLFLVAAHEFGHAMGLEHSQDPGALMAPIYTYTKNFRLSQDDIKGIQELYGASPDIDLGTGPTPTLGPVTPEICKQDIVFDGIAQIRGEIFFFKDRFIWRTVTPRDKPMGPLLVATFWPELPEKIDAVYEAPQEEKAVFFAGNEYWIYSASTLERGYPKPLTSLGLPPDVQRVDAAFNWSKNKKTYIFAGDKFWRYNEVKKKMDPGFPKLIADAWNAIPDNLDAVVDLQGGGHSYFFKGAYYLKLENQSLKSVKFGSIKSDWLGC

MMP-2 [2] = assay: Substrate phage display with NGS: relative probability (RP) of P3-P1' tetramer clusters; format: biochemical, human; settings: MMP2;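 further: ratio of tetramer probability after protease selection to that in naive phage library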
MMP-9 = MMP-9 (Homo sapiens, UniProt P14780); assay: K(obs) of individual phage substrates (set of 1369); format: biochemical; settings: MMP9
[3] = individual phage substrate of the set of 1369 peptides, cleavage position marked by '-'
[4] = RP of the P3-P1' tetramer contained in the substrate
[5] = individual phage substrate of the set of 1369 peptides, dash in the sequence marks the cleavage position
[6] = individual phage substrates, set of 1369 peptides, cleavage position marked by hyphen in sequence
[7] = RP of the P3-P1' tetramer contained in the substrate (substrate phage display with NGS)
[8] = individual phage substrates, set of 1369 peptides, hyphen in sequence marks cleavage position

Chain of MMP-9 (P14780 94-707): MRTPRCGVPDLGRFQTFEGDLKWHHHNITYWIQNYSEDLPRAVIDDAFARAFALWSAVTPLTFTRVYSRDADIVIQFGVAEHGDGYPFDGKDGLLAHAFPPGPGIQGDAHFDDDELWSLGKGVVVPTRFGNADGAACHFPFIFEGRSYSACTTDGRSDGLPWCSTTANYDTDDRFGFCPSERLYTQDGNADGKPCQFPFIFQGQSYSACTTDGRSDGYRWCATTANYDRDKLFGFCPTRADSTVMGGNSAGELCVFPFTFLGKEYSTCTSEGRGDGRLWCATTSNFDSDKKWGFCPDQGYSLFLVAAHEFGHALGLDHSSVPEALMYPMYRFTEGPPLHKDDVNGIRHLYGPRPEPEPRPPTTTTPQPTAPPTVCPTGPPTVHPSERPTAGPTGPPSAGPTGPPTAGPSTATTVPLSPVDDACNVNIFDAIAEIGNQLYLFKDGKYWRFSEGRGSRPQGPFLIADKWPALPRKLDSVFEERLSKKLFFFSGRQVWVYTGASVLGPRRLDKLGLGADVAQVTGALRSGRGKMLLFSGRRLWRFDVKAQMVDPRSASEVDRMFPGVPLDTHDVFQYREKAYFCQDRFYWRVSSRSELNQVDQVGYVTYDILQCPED

Substance	Kobs (MMP-2 [1]; [3]) [M⁻¹ s⁻¹]	relative probability (RP) (MMP-2 [2]; [4])	Kobs (MMP-9; [5]) [M⁻¹ s⁻¹]	Kobs (MMP-2 [1]; [6]) [M⁻¹ s⁻¹]	relative probability (RP) (MMP-2 [2]; [7])	Kobs (MMP-9; [8]) [M⁻¹ s⁻¹]
GGSGH-LLGMS	2097.28	1.458	690.17	–	–	–
STIRM-LTASG	2837.92	12.7446	2157.02	–	–	–
ERVWA-ITASG	1239.69	3.219	3438.54	–	–	–
VRLNY-LTASG	–	–	–	4763.33	12.3459	0
GTPYP-LRTAS	–	–	–	12792.1	30.8058	12792.1
RMLAQ-LTASG	–	–	–	12792.1	25.841	113.394
GSGAS-LQMLT	–	–	–	3253.29	9.538	84.609
SGVRY-LYGTA	–	–	–	3637.04	18.3724	8941.32
GWAYN-MRTAS	–	–	–	292.668	10.8408	2280.5
SGALH-LKATA	–	–	–	4205.91	14.6488	6688.74
GIVRY-LQTAS	4922.1	18.3724	3438.54	–	–	–
GFPQS-LMTAS	–	–	–	10866.7	33.5105	12792.1
SGGSG-LRILQ	0	1.9698	0	–	–	–
IPAFN-LTASG	–	–	–	10866.7	16.2959	12792.1
EMSWG-LTASG	–	–	–	0	0.1389	231.616
GRLRN-LVTAS	5461.43	27.1336	1925.41	–	–	–
RTPIG-ITASG	9740.44	31.281	12792.1	–	–	–
SGLWY-LSATA	–	–	–	1196.62	0.6796	484.315
GCVRF-LQTAS	1239.69	15.0438	1071.29	–	–	–
SGYRS-LTLTA	–	–	–	292.668	1.506	27.918

Substance	Kobs (MMP-2 [1]; [3]) [M⁻¹ s⁻¹]	relative probability (RP) (MMP-2 [2]; [4])	Kobs (MMP-9; [5]) [M⁻¹ s⁻¹]	Kobs (MMP-2 [1]; [6]) [M⁻¹ s⁻¹]	relative probability (RP) (MMP-2 [2]; [7])	Kobs (MMP-9; [8]) [M⁻¹ s⁻¹]
TAPKL-LTASG	7815.03	15.3454	12792.1	–	–	–
AFLSH-WTASG	–	–	–	12792.1	23.1226	0
ELSLA-LTASG	1925.41	6.019	1112.44	–	–	–
TFWGA-LTASG	10866.7	26.3441	0	–	–	–
WPHGS-LTASG	12792.1	19.9233	0	–	–	–
QPLSW-VTASG	12792.1	11.7463	4922.1	–	–	–
GCPHM-MTASG	–	–	–	654.784	14.968	1327.88
HTSNW-LTASG	3079.62	9.68	451.441	–	–	–
WHPVS-LTASG	12792.1	32.502	12792.1	–	–	–
GYPWA-WRTAS	1327.88	10.3227	4922.1	–	–	–
ERSLN-LTASG	726.013	3.302	1239.69	–	–	–
SQPIH-MTASG	2097.28	18.8886	6688.74	–	–	–
SGPRW-MKGTA	–	–	–	4205.91	32.3694	7815.03
SGPVA-LYKTA	–	–	–	12792.1	34.2983	12792.1
GVYAH-LLTAS	323.705	18.7061	171.876	–	–	–
GAPRF-LSTAS	12792.1	28.4443	12792.1	–	–	–
GVLYH-LQTAS	–	–	–	171.876	4.529	292.668
GIAHQ-LKTAS	–	–	–	726.013	4.1	201.585
SGVNH-LMTTA	201.585	12.8499	231.616	–	–	–
GAPRS-LVTAS	12792.1	33.3704	12792.1	–	–	–

Substance	Kobs (MMP-2 [1]; [3]) [M⁻¹ s⁻¹]	relative probability (RP) (MMP-2 [2]; [4])	Kobs (MMP-9; [5]) [M⁻¹ s⁻¹]	Kobs (MMP-2 [1]; [6]) [M⁻¹ s⁻¹]	relative probability (RP) (MMP-2 [2]; [7])	Kobs (MMP-9; [8]) [M⁻¹ s⁻¹]
RIPRF-LTASG	12792.1	28.4443	12792.1	–	–	–
GKVEY-LVTAS	–	–	–	0	5.301	0
GMVQH-LITAS	10866.7	22.9738	585.336	–	–	–
SGPRP-LYHTA	–	–	–	12792.1	34.3303	12792.1
LQSMN-LTASG	–	–	–	0	2.165	1239.69
GVHFH-LITAS	0	0.09413	0	–	–	–
ATIAH-LTASG	–	–	–	12792.1	32.9345	1465.65
SGPMA-LSRTA	8321.48	34.1737	12792.1	–	–	–
GGSGN-LTMGS	–	–	–	0	12.7361	0
GQQMS-LRTAS	–	–	–	56.119	0.2763	0
TFPFM-LTASG	1981.53	19.624	12792.1	–	–	–
YKPAG-LTASG	–	–	–	10866.7	36.0156	12792.1
SGPRF-IRLTA	1154.21	22.3274	2097.28	–	–	–
ANYSN-ITASG	–	–	–	4470.66	14.6847	0
VLPRS-WTASG	–	–	–	8321.48	32.796	5889.62
GVLRM-LSTAS	0	9.0498	951.362	–	–	–
SKMAH-LTASG	2409.72	29.5006	0	–	–	–
SGPVH-LLNTA	3344.37	32.2352	2280.5	–	–	–
